The test system of one assay is Nanog. The experiment in a line: Nanog expression at D8 after a round of hypoSUMOylation followed by 5-azacytidine treatment. It counts as cell-based, mouse. The note with it: 0.1 μM for 5 days after the first wave of hypoSUMOylation.
The test system of assay [1] is mouse ESC-derived spheroids. The experiment in a line: Marker expression and cell types of spheroids prepared with SUMO E1 inhibitor. Conditions: spheroids prepared with TAK-981; same as with ML-792. The assay is classed as cell-based. Here is the method:
On Day 1: first round. 500 000 ES R1 cells were plated per well well of a gelatin-coated 6-well plate in 2 ml of serum+Lif medium, supplemented with 0.1 μM of TAK-981. On Day 2, medium was replaced (aspirated) to refresh treatment (2 mL of Serum+Lif medium, supplemented with 0.1 μM of TAK-981 were added). After 48 h of treatment, on Day 3, the medium was aspirated and wells were rinsed twice with PBS then cells were allowed to recover in 2 ml of added serum+Lif. 6 days after the end of the first round, cells were similarly counted and plated for a 2nd round of TAK-981 (for example starting on Day 9 from the start of first round). On Day 9, 500 000 ES R1 cells were seeded per well on a gelatin-coated 6-well plate in 2 mL of Serum+Lif medium, supplemented with 0.1 μM of TAK-981 On day 10, the medium was aspirated and 2 ml of serum+Lif medium were added, supplemented with 0.1 μM of TAK-981 After 48 h of treatment (on Day 11), the medium was aspirated and wells were rinsed twice with PBS then cells were allowed to recover in 2 ml of N2B27+Lif medium that were added. Culture was carried out in N2B27+Lif medium.
(§1) cDNA was generated with a High-Capacity cDNA Reverse Transcription Kit (Applied Biosystems #4368814) from 500 ng to […] of total RNA purified by Trizol extraction. Quantitative real-time PCR analysis was performed with SYBR Green PCR master mix (Applied Biosystems #4309155) and the primer sets indicated in Supplementary Table 7 using cDNA or genomic DNA (local ChIP). Quantitative real-time PCR analysis was performed on a CFX96 Touch Real-Time PCR Detection System (Bio-Rad) or a QuantStudio 6 Flex Real-Time PCR System (Applied Biosystems).

A further assay deals with mouse ESCs (ES R1 cells). The experiment in a line: Generating adherent spheroids from mouse ESCs by two 48 h rounds of SUMO E1 inhibitor followed by medium switch. The note with it: two rounds of 48 h treatment in serum+Lif, then switch to N2B27+Lif; ML-792 2.5 μM, TAK-981 0.1 μM. The assay is classed as cell-based. Here is the method: • Using ML-792 as hypoSUMOylation agent (SUMO E1 enzyme inhibitor): ESCs (ES R1 cells-129X1×129S1—ATCC) were dissociated with Trypsin-EDTA and plated (2.5 million cells in 100 mm dish) in serum+Lif medium supplemented with 2.5 μM ML-792 (Takeda Pharmaceuticals International Co.). Medium was replaced the next day to refresh treatment. After 48 h of treatment, plates were rinsed twice with PBS then cells were allowed to recover in serum+Lif. 5 days after the end of the first round, cells were similarly counted and plated for a 2nd round of ML-792. After 48 h of treatment, plates were rinsed twice with PBS then cells were allowed to recover in N2B27+Lif medium. […] By contrast the following specific parameters are taken into consideration with TAK-981:
On Day 1: first round. 500 000 ES R1 cells were plated per well well of a gelatin-coated 6-well plate in 2 ml of serum+Lif medium, supplemented with 0.1 μM of TAK-981. On Day 2, medium was replaced (aspirated) to refresh treatment (2 mL of Serum+Lif medium, supplemented with 0.1 μM of TAK-981 were added). After 48 h of treatment, on Day 3, the medium was aspirated and wells were rinsed twice with PBS then cells were allowed to recover in 2 ml of added serum+Lif. 6 days after the end of the first round, cells were similarly counted and plated for a 2nd round of TAK-981 (for example starting on Day 9 from the start of first round). […]

Assay [2] relates to global level of SUMOylation in mouse ESCs. Nature of the assay: Immunoblots of SUMO1 and SUMO2/3 conjugates in treated ESCs. The assay is classed as cell-based. The note with it: D3 and D10, after first and second 48 h treatment; restored at D8 after withdrawal. As for the experimental part: Cells were collected and directly lysed in Laemmli buffer (Bio-Rad #161-0747). Proteins were quantified using Pierce 660 nm Protein Assay (ThermoFisher Scientific #22662) according to manufacturer's instructions. Equal amounts of proteins were loaded on gels and good equilibration of the different samples was assessed by Ponceau staining after membrane transfer. Antibodies against SUMO1 (1:1000, Abcam #ab32058), Actin (1:4000, Sigma #A1978), SUMO2/3 (1:1000, Abcam #ab81371), Gapdh (1:1000, Cell Signaling #2118), Dnmt1 (1:1000, Abcam #ab13537), Dnmt3a (1:1000, Abcam #ab2850), Dnmt3b (1:1000, Abcam #ab2851), Tet2 (1:1000, Cell Signaling #36449S), Histone H3 (1:5000, Abcam #ab24834) were used according to standard protocols and suppliers' recommendations.
(In general: In western blotting, separated proteins are transferred to a membrane and probed.)

Assay [3] concerns whole genome methylated CG fraction. Nature of the assay: Genome-wide DNA methylation profiling (Methyl-seq) during the hypoSUMOylation protocol. It counts as cell-based, mouse. The note with it: D1 to D10 of the hypoSUMOylation protocol. Here is the method: DNA was extracted and purified from 2 million cells for each condition with the Quick-DNA Midiprep Plus Kit (Zymo Research D4075) following manufacturer's instructions. DNA was quantified with a NanoDrop ND-1000 (ThermoFisher Scientific). The NEBNext Enzymatic Methyl-seq Kit (New England Biolabs #E7120S) was used to prepare libraries for detection of 5-mC and 5-hmC. 200 ng of DNA from each sample were sheared to 275 bp fragments with an E220 Focused-ultrasonicator (Covaris) with the following settings: Duty Factor, 10%—Peak Incident Power, 175 W—Cycles per burst, 200—Duration, 100 sec. Fragment size was validated by a 4200 TapeStation System (Agilent Technologies). The NEBNext Enzymatic Methyl-seq Kit workflow was then followed, using the sodium hydroxide option for the denaturation step. The size distribution and concentration of the libraries was determined by TapeStation. The libraries were sequenced on an Illumina HiSeq4000 sequencer as paired-end 100 base reads following Illumina's instructions. […]
Methyl-seq data were processed with the Bismark pipeline^62 using bowtie2 aligner^64 with the default parameters. Biological triplicates were merged and CG sites with at least 5 reads were kept for downstream analyses. Methylated and unmethylated CG sites were counted within predetermined windows (bin or interval) and a binomial test was used to compare different timepoints or regions. […]

The next assay has as its system Dnmt3a. Nature of the assay: Dnmt3a gene expression upon ML-792 treatment (siSall4 experiment). The assay is classed as cell-based, mouse. Conditions: ML-792 treatment for 48 h; induction reduced by Sall4 knockdown. Here is the method: as §1

For the compound `Nc1ncn([C@@H]2O[C@H](CO)[C@@H](O)[C@H]2O)c(=O)n1` [5-azacytidine], the “Nanog expression at D8” value in the assay on Nanog is “able to maintain a high level of Nanog”.

In the case of `Cc1sc(C(=O)c2cncnc2NC2C[C@H](COS(N)(=O)=O)[C@@H](C)C2)cc1[C@@H]1NCCc2ccc(Cl)cc21` (stereo partly shown) [TAK-981], in assay [1], the “emergence of EPI-L cell type” value is recorded as “Emergence of an EPI-L cell type expressing Pou3f1, Fgt5, Wnt3”; the “emergence of ESC-L cell type” value is on record as “Emergence of an ESC-L cell type expressing Dppa3”; the “emergence of XEN-L cell type” value is “Emergence of a XEN-L cell type expressing Sox17, Gata4, Snail”; the “pluripotency marker expression in spheroids” value was “Decrease of pluripotency markers Nanog, Essrb”. Besides, the “formation of spheroid structures” value in the assay with mouse ESCs (ES R1 cells) was “cells form three-dimensional adherent spheroids”.

Take `NS(=O)(=O)OC[C@H]1C[C@@H](Nc2ncncc2C(=O)c2ccn(Cc3cccc(Br)c3)n2)C[C@@H]1O` [ML-792]: in assay [2], the “level of SUMO conjugates (SUMO1, SUMO2/3 immunoblot)” value is “drop of SUMO conjugates at day 3 (D3) and D10”. Besides, in assay [3], the “whole genome methylated CG fraction” value is given as “gradual increase of the methylated CG fraction from D1 to D10”. The “formation of spheroid structures” value in the assay on mouse ESCs (ES R1 cells) is “yielded large spheroid structures on adherent plates”. The Dnmt3a expression entry in the assay with Dnmt3a was “induction of Dnmt3a”.
